According to article PMC10817917, “Alkyl deoxyglycoside-polymyxin combinations against critical priority carbapenem-resistant gram-negative bacteria” (Scientific Reports, 2024):
“And” between values parts separate entries of the source, which are not always exact repeats. Equal values may be shown once. Read-outs that look alike come from different tables or passages of the source.

Columns and labels:
[1] = system: K. pneumoniae CQ1942; test: Broth microdilution MIC, glycosides with or without polymyxins; type: cell-based, Klebsiella pneumoniae; details: for MIC: Klebsiella pneumoniae, CQ1942
[2] = system: E. coli ATCC 25922; test: Broth microdilution MIC/MBC, glycosides with or without polymyxins; type: cell-based, Escherichia coli; details: for MIC: Escherichia coli, ATCC25922
[3] = system: E. coli NCTC 13846; test: as above; type: cell-based, Escherichia coli; details: strain B
[4] = system: A. baumannii CQ4322; test: as above; type: cell-based, Acinetobacter baumannii; details: for MIC: Acinetobacter baumannii, CQ4322
[5] = alone, read-out: MICA (MIC of each compound individually)
[6] = combination with the lowest FICI
[7] = compound + colistin, lowest FICI

Question: What does the source list for `CCCCCCCCCCCC[C@H]1O[C@H](C)C[C@H](O)[C@H]1O` [Compound 5, 1-(4,6-dideoxy-α-D-xylo-hexopyranosyl)dodecane]?
Answer: MIC of colistin in combination with the compound ([1]; Cpd conc. 0.4 μg/mL, strain E): 0.5 µg/mL; MIC of colistin in combination with the compound ([1]; Cpd conc. 0.8 μg/mL, strain E): 0.5 µg/mL; MIC of colistin in combination with the compound ([1]; Cpd conc. 3.125 μg/mL, strain E): 0.25 µg/mL; MIC of colistin in combination with the compound ([1]; Cpd conc. 6.25 μg/mL, strain E): 0.25 µg/mL; MIC of colistin in combination with the compound ([1]; Cpd conc. 12.5 μg/mL, strain E): 0.25 µg/mL; MIC of colistin in combination with the compound ([1]; Cpd conc. […], strain E): 0.5 µg/mL; MIC ([1]; agent alone, no adjuvant (polymyxin conc. 0), strain E, read-out: MIC): > 100 µg/mL; MIC [1, 5]: > 100 µg/mL; MIC of compound in combination with PMB ([1]; PMB 0.25 μg/mL, strain E): > 100 µg/mL; MIC of compound in combination with PMB ([1]; PMB 0.5 μg/mL, strain E): 1.6 µg/mL; MIC of compound in combination with colistin ([1]; colistin 0.06 μg/mL, strain E): > 100 µg/mL; MIC of compound in combination with colistin ([1]; colistin 0.125 μg/mL, strain E): > 100 µg/mL; MIC of compound in combination with colistin ([1]; colistin 0.5 μg/mL, strain E): ≤ 0.1 µg/mL; MICA(A + B) (MIC of compound in combination with colistin) [1, 6]: 3.125 µg/mL; MICB(A + B) (MIC of colistin in combination with compound) [1, 6]: 0.25 µg/mL; Interpretation (of FICI) ([1]; compound + colistin): Additive (from 0.5 to 1.0 were additive); FICI [1, 7]: 0.52; MIC of colistin in combination with the compound ([2]; Cpd conc. 0.4 μg/mL, strain A): > 0.5 µg/mL; MIC of colistin in combination with the compound ([2]; Cpd conc. 0.8 μg/mL, strain A): > 0.5 µg/mL; MIC of colistin in combination with the compound ([2]; Cpd conc. 3.125 μg/mL, strain A): 0.25 µg/mL; MIC of colistin in combination with the compound ([2]; Cpd conc. 6.25 μg/mL, strain A): 0.125 µg/mL; MIC of colistin in combination with the compound ([2]; Cpd conc. 12.5 μg/mL, strain A): ≤ 0.06 µg/mL; MIC of colistin in combination with the compound ([2]; Cpd conc. […], strain A): 0.5 µg/mL; MIC ([2]; agent alone, no adjuvant (polymyxin conc. 0), strain A, read-out: MIC): > 100 µg/mL; MIC [2, 5]: > 100 µg/mL; MIC of compound in combination with PMB ([2]; PMB 0.25 μg/mL, strain A): 3.1 µg/mL; MIC of compound in combination with PMB ([2]; PMB 0.5 μg/mL, strain A): 3.1 µg/mL; MIC of compound in combination with colistin ([2]; colistin 0.06 μg/mL, strain A): 12.5 µg/mL; MBC of compound in combination with colistin ([2]; colistin 0.125 μg/mL, strain A): 6.3|6.3 μg/mL; MIC of compound in combination with colistin ([2]; colistin 0.125 μg/mL, strain A): 6.3 μg/mL and 6.3|6.3 μg/mL; MIC of compound in combination with colistin ([2]; colistin 0.25 μg/mL, strain A): 3.1 µg/mL; MIC of compound in combination with colistin ([2]; colistin 0.5 μg/mL, strain A): 1.6 µg/mL; MICA(A + B) (MIC of compound in combination with colistin) [2, 6]: 12.5 µg/mL; MICB(A + B) (MIC of colistin in combination with compound) [2, 6]: 0.06 µg/mL; Interpretation (of FICI) ([2]; compound + colistin): Synergy (Values ≤ 0.5 were considered synergistic); FICI [2, 7]: 0.18; MIC of colistin in combination with the compound ([3]; Cpd conc. 0.4 μg/mL): > 0.5 µg/mL; MIC of colistin in combination with the compound ([3]; Cpd conc. 0.8 μg/mL): > 0.5 µg/mL; MIC of colistin in combination with the compound ([3]; Cpd conc. 3.125 μg/mL): > 0.5 µg/mL; MIC of colistin in combination with the compound ([3]; Cpd conc. 6.25 μg/mL): > 0.5 µg/mL; MIC of colistin in combination with the compound ([3]; Cpd conc. 12.5 μg/mL): > 0.5 µg/mL; MIC of colistin in combination with the compound ([3]; Cpd conc. […]): > 0.5 µg/mL; MIC ([3]; Escherichia coli, NCTC13846, agent alone, no adjuvant (polymyxin conc. 0), read-out: MIC): > 100 µg/mL; MIC of compound in combination with PMB ([3]; PMB 0.25 μg/mL): > 100 µg/mL; MIC of compound in combination with PMB ([3]; PMB 0.5 μg/mL): > 100 µg/mL; MIC of compound in combination with colistin ([3]; colistin 0.06 μg/mL): > 100 µg/mL; MBC of compound in combination with colistin ([3]; colistin 0.125 μg/mL): > 100|> 100 μg/mL; MIC of compound in combination with colistin ([3]; colistin 0.125 μg/mL): > 100|> 100 μg/mL; MIC of compound in combination with colistin ([3]; colistin 0.25 μg/mL): > 100 µg/mL; MIC of compound in combination with colistin ([3]; colistin 0.5 μg/mL): > 100 µg/mL; MIC ([4]; agent alone, no adjuvant (polymyxin conc. 0), strain G, read-out: MIC): > 100 µg/mL; MIC [4, 5]: > 100 µg/mL; MIC of colistin in combination with the compound ([4]; Cpd conc. 0.4 μg/mL, strain G): > 0.5 µg/mL; MIC of colistin in combination with the compound ([4]; Cpd conc. 0.8 μg/mL, strain G): 0.5 µg/mL; MIC of colistin in combination with the compound ([4]; Cpd conc. 3.125 μg/mL, strain G): 0.25 µg/mL; MIC of colistin in combination with the compound ([4]; Cpd conc. 6.25 μg/mL, strain G): 0.25 µg/mL; MIC of colistin in combination with the compound ([4]; Cpd conc. 12.5 μg/mL, strain G): 0.25 µg/mL; MIC of colistin in combination with the compound ([4]; Cpd conc. […], strain G): 0.5 µg/mL; MIC of compound in combination with PMB ([4]; PMB 0.25 μg/mL, strain G): > 100 µg/mL; MIC of compound in combination with PMB ([4]; PMB 0.5 μg/mL, strain G): 3.1 µg/mL; MIC of compound in combination with colistin ([4]; colistin 0.06 μg/mL, strain G): > 100 µg/mL; MBC of compound in combination with colistin ([4]; colistin 0.125 μg/mL, strain G): 25|25 μg/mL; MIC of compound in combination with colistin ([4]; colistin 0.125 μg/mL, strain G): 25 μg/mL and 25|25 μg/mL; MIC of compound in combination with colistin ([4]; colistin 0.25 μg/mL, strain G): 3.1 µg/mL; MIC of compound in combination with colistin ([4]; colistin 0.5 μg/mL, strain G): 0.8 µg/mL; MICA(A + B) (MIC of compound in combination with colistin) [4, 6]: 25 µg/mL; MICB(A + B) (MIC of colistin in combination with compound) [4, 6]: 0.125 µg/mL; FICI [4, 7]: 0.38
